# Source: patent US20240376411A1, “IMPROVED PERFUME COMPOSITIONS COMPRISING SULFUR-CONTAINING PRO-FRAGRANCE COMPOUNDS” (FIRMENICH SA, priority 2021, published 2024)
# Tests used:
# [1] = Sensorial evaluation (hydrogen sulfide smell) of perfume compositions upon 1 and 2 weeks of storage at 50° C.; assay type: physicochemical; conditions: for amount in the perfume composition that does not lead to an unpleasant hydrogen sulfide smell upon storage: conclusion from Tables 2 to 4, storage at 50° C.
# Source text: (§1) To the first perfume composition, a perfumery raw material that promotes the formation of hydrogen sulfide ((−)-(2E)-2-ethyl-4-[(1R)-2,2,3-trimethyl-3-cyclopenten-1-yl]-2-buten-1-ol) has been added at various amounts (5 wt. %, 10 wt. %, 20 wt. %, 30 wt. %, and 40 wt. %, respectively, based on the total weight of the perfume composition). For each amount, it has been tested whether a hydrogen sulfide malodor could be perceived upon storage of the final perfume composition for 1 and 2 weeks, respectively, at 50° C.
# as §1, with “Likewise, to” for “To”, “second” for “first”, “((+/−)-3-methyl-5-phenyl-1-pentanol)” for “((−)-(2E)-2-ethyl-4-[(1R)-2,2,3-trimethyl-3-cyclopenten-1-yl]-2-buten-1-ol)”
# as §1, with “Likewise, to” for “To”, “third” for “first”, “((+/−)-3,7-dimethyl-6-octen-1-ol)” for “((−)-(2E)-2-ethyl-4-[(1R)-2,2,3-trimethyl-3-cyclopenten-1-yl]-2-buten-1-ol)”
# [2] = logP above 4 (octanol-water partition coefficient); conditions: Yes/No
# [3] = Identification of perfumery raw materials that promote hydrogen sulfide formation (1:1 w/w mix, storage, smell); assay type: physicochemical; conditions: raw materials named in Example 2 as not promoting; test conditions not repeated there
# Experimental: In other words, each of the perfumery raw materials being present in the perfume composition is capable of inducing a hydrogen sulfide smell when being mixed individually in a 1:1 (w/w) ratio with the sulfur-containing pro-fragrance compound and being stored for 2 weeks at 50° C. Preferably, a hydrogen sulfide smell is induced when being mixed in a 1:1 (w/w) ratio with 3-(dodecylthio)-1-(2,6,6-trimethylcyclohex-3-en-1-yl) butan-1-one (HaloScent® D) and stored for 2 weeks at 50° C. Preferably, the mixing is carried out in a 10 mL glass jar. The perfumery raw materials may be used as such or may be dissolved in a solvent, for example at a concentration of from 10% to 50%.
# Perfumery raw materials that promote the formation of hydrogen sulfide from 3-(dodecylthio)-1-(2,6,6-trimethylcyclohex-3-en-1-yl) butan-1-one (HaloScent® D) have been identified by mixing individual perfumery raw materials with 3-(dodecylthio)-1-(2,6,6-trimethylcyclohex-3-en-1-yl) butan-1-one (HaloScent® D) in a 1:1 (w/w) ratio in a 10 mL glass jar and storing said mixture for 2 weeks at 50° C. In case a hydrogen sulfide smell (similar to rotten egg odor) could be perceived after 2 weeks, it has been concluded that the perfumery raw material promotes the formation of hydrogen sulfide from 3-(dodecylthio)-1-(2,6,6-trimethylcyclohex-3-en-1-yl) butan-1-one (HaloScent® D).
# [4] = 5 wt. % of the raw material in the perfume composition, even after 2 weeks of storage
# [5] = 10 wt. % of the raw material in the perfume composition, even after 2 weeks of storage
# [6] = above 20 wt. % of the raw material, after 1 week of storage
SMILES,"unpleasant hydrogen sulfide smell [1, 4]","unpleasant hydrogen sulfide smell [1, 5]","unpleasant hydrogen sulfide smell [1, 6]",amount in the perfume composition that does not lead to an unpleasant hydrogen sulfide smell upon storage [1],logP > 4 [2],"unpleasant hydrogen sulfide smell ([1]; at 20 wt. % (and above) of the raw material, only after 1 week of storage at 50° C.)",promotion of formation of hydrogen sulfide from HaloScent® D [3]
"CC(C)=CCCC(C)CCO (racemic) [(+/−)-3,7-dimethyl-6-octen-1-ol]",no unpleasant hydrogen sulfide smell could be perceived,no unpleasant hydrogen sulfide smell could be perceived,unpleasant hydrogen sulfide smell was perceived,up to 19 wt. %,No,,
CC(CCO)CCc1ccccc1 (racemic) [(+/−)-3-methyl-5-phenyl-1-pentanol],no unpleasant hydrogen sulfide smell could be perceived,no unpleasant hydrogen sulfide smell could be perceived,unpleasant hydrogen sulfide smell was perceived,up to 19 wt. %,No,,
"CC/C(=C\C[C@H]1CC=C(C)C1(C)C)CO [(−)-(2E)-2-ethyl-4-[(1R)-2,2,3-trimethyl-3-cyclopenten-1-yl]-2-buten-1-ol]",no unpleasant hydrogen sulfide smell could be perceived,no unpleasant hydrogen sulfide smell could be perceived,,up to 19 wt. %,Yes,unpleasant hydrogen sulfide smell was perceived,
"c1ccc(Oc2ccccc2)cc1 [1,1′-oxydibenzene]",,,,,,,do not promote the formation of hydrogen sulfide
C=CCOC(=O)COC1CCCCC1 [allyl (cyclohexyloxy)acetate],,,,,,,do not promote the formation of hydrogen sulfide
